In paper PMC12735921, “Evaluation of Antiproliferative Activity and Molecular Modeling Studies of Some Novel Benzimidazolone-Bridged Hybrid Compounds” (Pharmaceuticals, 2025):
Where “and” joins values, the source holds several entries; their conditions need not be identical. Equal values may be shown once.

Columns and labels:
Assay type in all cases: cell-based, human
[1] = tested on: A549 cells; test: MTT cell viability assay, A549; details: for IC50: MTT, 48 h, mean ± SD, n = 3; for A549 Selectivity Index (SI): SI = IC50 (HEK 293)/IC50 (A549)
Protocol: (§1) Cell viability assay was performed on the human lung cancer (A549) (ATCC CCL-185), human breast cancer (MCF-7) (ATCC-HTB-22), cervical cancer (HeLa) (ATCC-CCL-2), and human embryonic kidney 293 (HEK293) (ATCC-CRL-1573) cell lines, which were purchased from Deutsche Sammlung von Mikroorganismen und Zellkulturen (DSMZ, Braunschweig, Germany). The cells were maintained in Dulbecco’s modified Eagle’s medium (DMEM), supplemented with 10% fetal bovine serum (FBS), 2 mM L-glutamine, 100 U/mL penicillin, and 100 mg/L streptomycin (Biochrom AG, Berlin, Germany) at 37 °C in a humidified atmosphere of 5% CO2.
(§2) The cytotoxic effect was determined by the MTT (3-(4,5-dimethyl-2-thiazolyl)-2,5-diphenyl-2H-tetrazolium bromide) cell viability assay. Cells were seeded at an initial concentration of 1 × 10^5 cells/mL in 96-well microplates. Cells were then treated with different concentrations (0.5, 5, 10, 25, 50, 100 and 200 µM) of the novel synthesized compounds for 48 h. After the incubation period, the formed formazan crystals were dissolved in dimethyl sulfoxide (DMSO), and the optical density (OD) of the compounds was measured at 570 nm using a spectrophotometer (BMG Labtech, Ortenberg, Germany). Cytotoxicity was expressed as an increase in the mean percentage of cytotoxicity relative to the unexposed control ± standard deviation (SD). […] Control values were set at 0% cytotoxicity. IC50 was calculated by fitting the data to a sigmoidal curve using a four-parameter logistic model and was presented as an average of three independent measurements. […] Doxorubicin was used as a positive control. Each sample was tested in triplicate.
(§3) To evaluate the selectivity of the tested compound(s) toward cancer cells over normal cells, the Selectivity Index (SI) was calculated using the following formula:SI = IC50 (normal cells)/IC50 (cancer cells)
(§4) An SI value greater than 2 was considered to indicate selective cytotoxicity, while values below 2 were interpreted as non-selective. Higher SI values reflect greater therapeutic potential due to reduced toxicity toward normal cells.

[2] = tested on: HeLa cells; test: MTT cell viability assay, HeLa; details: for IC50: MTT, 48 h, mean ± SD, n = 3; for HeLa Selectivity Index (SI): SI = IC50 (HEK 293)/IC50 (HeLa)
Protocol: as §1, §2, §3, §4

[3] = tested on: MCF-7 cells; test: MTT cell viability assay, MCF-7; details: for IC50: MTT, 48 h, mean ± SD, n = 3; for MCF-7 Selectivity Index (SI): SI = IC50 (HEK 293)/IC50 (MCF-7)
Protocol: as §1, §2, §3, §4

[4] = tested on: HEK 293 cells; test: MTT cell viability assay, non-cancerous HEK 293; details: mean ± SD, n = 3
Protocol: as §1
The cytotoxic effect was determined by the MTT (3-(4,5-dimethyl-2-thiazolyl)-2,5-diphenyl-2H-tetrazolium bromide) cell viability assay. Cells were seeded at an initial concentration of 1 × 10^5 cells/mL in 96-well microplates. Cells were then treated with different concentrations (0.5, 5, 10, 25, 50, 100 and 200 µM) of the novel synthesized compounds for 48 h. After the incubation period, the formed formazan crystals were dissolved in dimethyl sulfoxide (DMSO), and the optical density (OD) of the compounds was measured at 570 nm using a spectrophotometer (BMG Labtech, Ortenberg, Germany). Cytotoxicity was expressed as an increase in the mean percentage of cytotoxicity relative to the unexposed control ± standard deviation (SD). […] Control values were set at 0% cytotoxicity. IC50 was calculated by fitting the data to a sigmoidal curve using a four-parameter logistic model and was presented as an average of three independent measurements. […] Each sample was tested in triplicate.

[5] = tested on: HeLa cells; test: Total oxidative status (TOS), HeLa; details: IC50 concentration of compound, 48 h, H2O2 250 µM positive control, mean ± SD, n = 3
Protocol: TOS were evaluated using a commercially available kit (Rel Assay Diagnostics®, Gaziantep, Turkey) according to the manufacturer’s instructions. […] The TOS assay quantifies oxidizing agents based on their ability to convert an iron (II) ion chelator complex to iron (III) ions. The results were calibrated against hydrogen peroxide (H2O2, 250 µM) as a positive control for 48 h and expressed as µmol H2O2 equivalents per liter. The analysis was performed in three independent biological replicates (n = 3).

[6] = tested on: HeLa cells; test: LDH leakage assay, HeLa; details: IC50 concentration of compound, 48 h, H2O2 positive control, mean ± SD, n = 3
Protocol: One hundred microliters of culture medium was transferred to a new 96-well plate. One hundred microliters of LDH reaction solution was added to each well, and absorbance was measured at 490 nm using an ELISA plate reader (BMG Labtech, Ortenberg, Germany) after 30 min.

[7] = tested on: HeLa cells; test: Cell cycle analysis (PI staining, flow cytometry), HeLa; details: IC50 concentration, 48 h, mean ± SEM, n = 3
Protocol: Cell cycle distribution was assessed by propidium iodide (PI) staining and flow cytometry. HeLa, MCF-7, and A549 cells were seeded in 6-well plates at a density of 1 × 10^5 cells per well and allowed to attach overnight. […] Following exposure, both adherent and floating cells were collected, washed twice with cold phosphate-buffered saline (PBS, pH 7.4), and fixed overnight in 70% cold ethanol at 4 °C. After fixation, the cells were centrifuged and resuspended in 500 µL of PI/RNase staining solution containing 50 µg/mL PI and 100 µg/mL RNase A (Sigma-Aldrich®, St. Louis, MO, USA), followed by incubation in the dark for 30 min at 37 °C. The stained samples were analyzed using a Muse™ Cell Analyzer (Merck, Millipore, Germany) equipped with a 488 nm excitation laser and a 617 nm emission filter. A minimum of 10,000 events per sample were acquired after exclusion of debris and doublets via FSC-A vs. FSC-H gating. The DNA content histograms were generated automatically, and cell populations were expressed as percentages of G0/G1, S, and G2/M phases using the Muse™ Cell Cycle Analysis Software 1.5.0.0. All assays were conducted in triplicate biological repeats (n = 3), and results were reported as mean ± SEM.

[8] = tested on: HeLa cells; test: Intracellular GSH/GSSG ratio, HeLa; details: IC50 concentration of compound, 48 h, H2O2 positive control, mean ± SD, n = 3
Protocol: Intracellular reduced (GSH) and oxidized (GSSG) glutathione levels were measured using the GSH/GSSG Ratio Detection Assay Kit (Cayman Chemical, Ann Arbor, MI, USA, Cat. No: 703002) according to the manufacturer’s protocol. […] After treatment, cells were washed with cold PBS and lysed with MES buffer provided in the kit.
To prevent oxidation of GSH to GSSG during processing, samples were deproteinized using the supplied metaphosphoric acid solution and neutralized accordingly. Total glutathione and GSSG levels were measured separately by adding the appropriate buffers and reagents to the wells of a 96-well plate, followed by the addition of DTNB recycling reagent and glutathione reductase. Absorbance was read at 405 nm using a microplate reader (BMG Labtech, Germany). The amount of GSH was calculated by subtracting 2 × GSSG from the total glutathione, and the GSH/GSSG ratio was used to assess intracellular redox status.

IC50 ([1]; Homo sapiens, A549)	IC50 ([2]; Homo sapiens, HeLa)	IC50 ([3]; Homo sapiens, MCF7)	Molecule	IC50 [1]	IC50 [2]	IC50 [3]	IC50 ([4]; 48 h)	A549 Selectivity Index (SI) [1]	HeLa Selectivity Index (SI) [2]	MCF-7 Selectivity Index (SI) [3]	IC50 ([4]; Homo sapiens, HEK293, 48 h)	TOS [5]	LDH [6]	cells in G0/G1 phase [7]	cells in G2/M phase [7]	cells in S phase [7]	GSH/GSSG [8]
23.6 ± 1.3 µM	29.1 ± 1.26 µM	26.4 ± 1.52 µM	CCN(CC)c1ccc2cc(C(=O)NNC(=O)Cn3c(=O)n(CC(=O)NNC(=O)c4cc5ccc(N(CC)CC)cc5oc4=O)c4cc(Cl)c(Cl)cc43)c(=O)oc2c1 [Compound 12f]	–	–	–	–	1.84	1.49	1.64	43.5 ± 2.51 µM	–	–	–	–	–	–
52.8 ± 3 µM	54.3 ± 3.13 µM	65.1 ± 3.76 µM	COc1cccc2cc(C(=O)NNC(=O)Cn3c(=O)n(CC(=O)NNC(=O)c4cc5cccc(OC)c5oc4=O)c4cc(Cl)c(Cl)cc43)c(=O)oc12 [Compound 12e, N′,N′′′ -(2,2′-(5,6-dichloro-2-oxo-1H-benzo[d]imidazole-1,3(2H)-diyl)bis(acetyl))bis(8-methoxy-2-oxo-2H-chromene-3-carbohydrazide)]	–	–	–	–	1.14	1.1	0.92	60.2 ± 3.47 µM	–	–	–	–	–	–
21.7 ± 1.25 µM	48.5 ± 2.8 µM	50.8 ± 2.93 µM	O=C(Cn1c(=O)n(CC(=O)NNC(=O)c2cc3ccccc3oc2=O)c2cc(Cl)c(Cl)cc21)NNC(=O)c1cc2ccccc2oc1=O [Compound 12a, N′,N′′′ -(2,2′-(5,6-dichloro-2-oxo-1H-benzo[d]imidazole-1,3(2H)-diyl)bis(acetyl))bis(2-oxo-2H-chromene-3-carbohydrazide)]	–	–	–	–	2.05	0.91	0.87	44.6 ± 2.57 µM	–	–	–	–	–	–

The next lines start with the molecule.

Molecule	IC50 ([1]; Homo sapiens, A549)	IC50 ([2]; Homo sapiens, HeLa)	IC50 ([3]; Homo sapiens, MCF7)	IC50 [1]	IC50 [2]	IC50 [3]	IC50 ([4]; 48 h)	A549 Selectivity Index (SI) [1]	HeLa Selectivity Index (SI) [2]	MCF-7 Selectivity Index (SI) [3]	IC50 ([4]; Homo sapiens, HEK293, 48 h)	TOS [5]	LDH [6]	cells in G0/G1 phase [7]	cells in G2/M phase [7]	cells in S phase [7]	GSH/GSSG [8]
2,2′-(5,6-Dichloro-2-oxo-1H-benzimidazole-1,3(2H)-diyl)bis[N′-(furan-2-ylmethylidene) acetohydrazide] [Compound 4]	–	–	–	48 ± 2.77 µM	72 ± 4.16 µM	58 ± 3.35 µM	55 ± 3.17 µM	–	–	–	–	–	–	–	–	–	–
O=C(Cn1c(=O)n(CC(=O)N/N=C/c2cccs2)c2cc(Cl)c(Cl)cc21)N/N=C/c1cccs1 [Compound 5]	48.3 ± 2.79 µM	26.1 ± 1.5 µM	50.2 ± 2.9 µM	–	–	–	–	1.22	2.27	1.18	59.4 ± 3.43 µM	6.9 ± 0.5 µmol H2O2 eq/L and 6.9 ± 0.5 ^a,b µmol H2O2 eq/L	24.8 ± 2.1 µU/mL and 24.8 ± 2.1 ^a,b µU/mL	44.5 ± 2.2%	30.0 ± 1.5%	25.5 ± 1.6%	11.8 ± 1.3
CCOC(=O)Cn1c(=O)n(CC(=O)OCC)c2cc(Cl)c(Cl)cc21 [Compound 2, Diethyl 2,2′-(5,6-Dichloro-2-oxo-1H-benzimidazole-1,3(2H)-diyl)diacetate]	60.8 ± 3.51 µM	68.8 ± 3.9 µM	63.2 ± 3.65 µM	–	–	–	–	1.17	1.04	1.13	71.3 ± 4.12 µM	–	–	–	–	–	–
O=C(Cn1c(=O)n(CC(=O)c2ccccc2)c2cc(Cl)c(Cl)cc21)c1ccccc1 [Compound 8, 5,6-Dichloro-1,3-bis(2-oxo-2-phenylethyl)-1,3-dihydro-2H-benzimidazol-2-one]	19.1 ± 1.1 µM	23.9 ± 1.38 µM	21.7 ± 1.25 µM	–	–	–	–	0.91	0.73	0.8	17.5 ± 1.01 µM	–	–	–	–	–	–
NNC(=O)Cn1c(=O)n(CC(=O)NN)c2cc(Cl)c(Cl)cc21 [Compound 3, 2,2′-(5,6-Dichloro-2-oxo-1H-benzimidazole-1,3(2H)-diyl)diacetohydrazide]	63.5 ± 3.6 µM	75.4 ± 4.35 µM	69.8 ± 4.03 µM	–	–	–	–	1.06	0.89	0.97	67.9 ± 3.9 µM	–	–	–	–	–	–
COc1cccc2c1C(=O)c1c(O)c3c(c(O)c1C2=O)C[C@@](O)(C(=O)CO)C[C@@H]3O[C@H]1C[C@H](N)[C@H](O)[C@H](C)O1 [Doxorubicin, reference compound]	4.3 ± 0.2 µM	3.4 ± 0.19 µM	6.4 ± 0.37 µM	–	–	–	–	–	–	–	–	–	–	–	–	–	–
